Measurements as given in ChEMBL document CHEMBL5518189, “Design, synthesis and biological evaluation of 1,2,3-triazole benzothiazole derivatives as tubulin polymerization inhibitors with potent anti-esophageal cancer activities” (Eur J Med Chem, 2024).
The source made the active and inactive calls. The calls are words filed in the database; no cut-off is given here.

Tests used:
ECa-109 [1] = assay: Downregulation of YAP level in human EC109 cells at 60 nM incubated for 48 hrs in presence of MG132; type: functional, cell-based
KYSE-30 [2] = assay: Antiproliferative activity against human KYSE-30 cells assessed as reduction in cell viability by CCK-8 method; type: functional, cell-based; details: time 12-48 hrs, TDE = time-dependent effect
ECa-109 cell line [3] = assay: Induction of cell cycle arrest in human EC109 cells assessed as accumulation of cells at G2/M phase at 0 to 40 nM measured after 48 hrs by propidium iodide staining based flow cytometry analysis (reference value: 14.57%); type: functional; details: dose 0-40 nM
ECa-109 cell line [4] = assay: Inhibition of colony formation in human EC109 cells at 20 to 40 nM incubated for 7 days by crystal violet staining based analysis; type: functional, cell-based; details: dose 20-40 nM, time 7.0 day
ECa-109 [5] = assay: Downregulation of YAP level in human EC109 cells incubated for 48 hrs; type: functional, cell-based; details: dose 40-80 nM
ECa-109 cell line [6] = assay: Induction of apoptosis in human EC109 cells assessed as decrease in pro-caspase 3 level at 40 to 100 nM measured after 48 hrs by Western blot analysis; type: functional, cell-based; details: dose 40-100 nM
ECa-109 cell line [7] = assay: Induction of cell cycle arrest in human EC109 cells assessed as effect on cyclinB1 level at 40 to 60 nM measured after 48 hrs by Western blot analysis; type: functional, cell-based; details: dose 40-60 nM
ECa-109 cell line [8] = assay: Antiproliferative activity against human EC109 cells assessed as reduction in cell viability measured after 48 hrs by CCK-8 method; type: functional, cell-based; details: dose 10-70 nM
KYSE-30 [9] = assay: Induction of apoptosis in human KYSE-30 cells assessed as effect on Mcl-1 level at 40 to 60 nM by flow cytometry analysis; type: functional, cell-based; details: dose 40-60 nM
KYSE-30 [10] = assay: Induction of cell cycle arrest in human KYSE-30 cells assessed as effect on cyclin B1 level at 40 to 60 nM measured after 48 hrs by Western blot analysis; type: functional, cell-based; details: dose 40-60 nM
ECa-109 cell line [11] = assay: Induction of apoptosis in human EC109 cells assessed as increase in cleaved PARP level at 40 to 100 nM measured after 48 hrs by Western blot analysis; type: functional, cell-based; details: dose 40-100 nM
KYSE-30 [12] = assay: Induction of cell cycle arrest in human KYSE-30 cells assessed as downregulation of CDC25C level at 40 to 60 nM measured after 48 hrs by Western blot analysis; type: functional, cell-based; details: dose 40-60 nM
KYSE-30 [13] = assay: Induction of apoptosis in human KYSE-30 cells assessed as downregulation of Bcl-2 level at 40 to 60 nM by flow cytometry analysis; type: functional, cell-based; details: dose 40-60 nM
ECa-109 cell line [14] = assay: Induction of apoptosis in human EC109 cells assessed as effect on bax level at 40 to 60 nM by flow cytometry analysis; type: functional, cell-based; details: dose 40-60 nM
Cell membrane [15] = assay: Induction of mitochondrial membrane depolarization in human KYSE-30 cells assessed as increase in caspase 9 activity at 40 to 60 nM incubated for 24 hrs by flow cytometry analysis; type: cell membranes; details: dose 40-60 nM
Tubulin (Homo sapiens) = Tubulin (Homo sapiens) (UniProt P68371+Q9H4B7+P0DPH7+P68366+Q13509+Q71U36+P04350+Q3ZCM7+P07437+P68363+Q9BQE3+Q6PEY2+Q13885+Q9BVA1+Q9BUF5); assay: Inhibition of tubulin polymerization in human KYSE-30 cells assessed as appearance of multinucleation at 20 to 40 nM incubated for 6 hrs by immunofluorescence staining based fluorescence microscopic analysis; type: cell-based; details: dose 20-40 nM
Tubulin = assay: Inhibition of tubulin polymerization (unknown origin) measured upto 4500 secs by fluorescence based analysis; type: protein-complex assay, Homo sapiens
KYSE-30 [16] = assay: Induction of apoptosis in human KYSE-30 cells measured after 48 hrs by annexin V-FITC and PI staining based flow cytometry analysis; type: functional, cell-based; details: dose 20-40 nM
KYSE-30 [17] = assay: Antiproliferative activity against human KYSE-30 cells assessed as inhibition of cell growth measured after 48 hrs by CCK8 method; type: functional, cell-based; details: KYSE-30, 48 h
ECa-109 cell line [18] = assay: Induction of cell cycle arrest in human EC109 cells assessed as downregulation of Wee1 phosphorylation level at 40 to 60 nM measured after 48 hrs by Western blot analysis; type: functional, cell-based; details: dose 40-60 nM
ECa-109 [19] = assay: Effect on MST2 level in human EC109 cells at 40 to 60 nM measured after 48 hrs; type: functional, cell-based; details: dose 40-60 nM
ECa-109 [20] = assay: Downregulation of MST phosphorylation level in human EC109 cells at 40 to 60 nM measured after 48 hrs; type: functional, cell-based; details: dose 40-60 nM
HCT-116 = assay: Antiproliferative activity against human HCT-116 cells assessed as inhibition of cell growth measured after 48 hrs by CCK8 method; type: functional, cell-based; details: HCT-116, 48 h
KYSE-30 [21] = assay: Induction of apoptosis in human KYSE-30 cells assessed as effect on bax level at 40 to 60 nM by flow cytometry analysis; type: functional, cell-based; details: dose 40-60 nM
ECa-109 cell line [22] = assay: Antiproliferative activity against human EC109 cells assessed as reduction in cell viability by CCK-8 method; type: functional, cell-based; details: time 12-48 hrs, TDE = time-dependent effect
KYSE-30 [23] = assay: Induction of cell cycle arrest in human KYSE-30 cells assessed as downregulation of CDK1 level at 40 to 60 nM measured after 48 hrs by Western blot analysis; type: functional, cell-based; details: dose 40-60 nM
KYSE-30 [24] = assay: Induction of cell cycle arrest in human KYSE-30 cells assessed as upregulation of histone H3phosphorylation level at 40 to 60 nM measured after 48 hrs by Western blot analysis; type: functional, cell-based; details: dose 40-60 nM
ECa-109 cell line [25] = assay: Induction of cell cycle arrest in human EC109 cells assessed as downregulation of CDK1 level at 40 to 60 nM measured after 48 hrs by Western blot analysis; type: functional, cell-based; details: dose 40-60 nM
ECa-109 cell line [26] = assay: Induction of apoptosis in human EC109 cells assessed as downregulation of bcl-2 level at 40 to 60 nM by flow cytometry analysis; type: functional, cell-based; details: dose 40-60 nM
KYSE-30 [27] = assay: Induction of cell cycle arrest in human KYSE-30 cells assessed as downregulation of Wee1 phosphorylation level at 40 to 60 nM measured after 48 hrs by Western blot analysis; type: functional, cell-based; details: dose 40-60 nM
KYSE-30 [28] = assay: Induction of apoptosis in human KYSE-30 cells assessed as increase in caspase 3 activity at 40 to 100 nM measured after 48 hrs by Western blot analysis; type: functional, cell-based; details: dose 40-100 nM
ECa-109 cell line [29] = assay: Induction of apoptosis in human EC109 cells assessed as downregulation of XIAP level at 40 to 60 nM by flow cytometry analysis; type: functional, cell-based; details: dose 40-60 nM
KYSE-30 [30] = assay: Induction of apoptosis in human KYSE-30 cells assessed as effect on bak level at 40 to 60 nM by flow cytometry analysis; type: functional, cell-based; details: dose 40-60 nM
KYSE-30 [31] = assay: Inhibition of colony formation in human KYSE-30 cells at 20 to 40 nM incubated for 7 days by crystal violet staining based analysis; type: functional, cell-based; details: dose 20-40 nM, time 7.0 day
ECa-109 cell line [32] = assay: Induction of apoptosis in human EC109 cells assessed as increase in caspase 3 activity at 40 to 100 nM measured after 48 hrs by Western blot analysis; type: functional, cell-based; details: dose 40-100 nM
KYSE-30 [33] = assay: Induction of apoptosis in human KYSE-30 cells assessed as effect on Bcl-xl level at 40 to 60 nM by flow cytometry analysis; type: functional, cell-based; details: dose 40-60 nM
Cell membrane [34] = assay: Induction of mitochondrial membrane depolarization in human EC109 cells at 40 to 60 nM incubated for 24 hrs by flow cytometry analysis; type: cell membranes; details: dose 40-60 nM
ECa-109 cell line [35] = assay: Induction of apoptosis in human EC109 cells assessed as increase in total number of apoptotic cells at 40 nM measured after 48 hrs by annexin V-FITC and PI staining based flow cytometry analysis (reference value: 4.93%); type: functional

COc1ccc(CN(C(=O)Cn2cc(CSc3nc4ccccc4s3)nn2)c2cc(OC)c(OC)c(OC)c2)cc1O
Activity (ECa-109 [1]): inactive
Activity (KYSE-30 [2]): Tde
Activity (ECa-109 cell line [3]): 55.65%
inhibition (ECa-109 cell line [4]): Active
Activity (ECa-109 [5]): Dose-Dependent Effect
Activity (ECa-109 cell line [6]): Active
Activity (ECa-109 cell line [7]): inactive
Activity (ECa-109 cell line [8]): Dose-Dependent Effect
Activity (KYSE-30 [9]): inactive
Activity (KYSE-30 [10]): inactive
Activity (ECa-109 cell line [11]): Active
Activity (KYSE-30 [12]): Active
Activity (KYSE-30 [13]): Active
Activity (ECa-109 cell line [14]): inactive
Activity (Cell membrane [15]): Active
inhibition (Tubulin (Homo sapiens)): Active
IC50 (Tubulin): 446 nM
Activity (KYSE-30 [16]): Dose-Dependent Effect
IC50 (KYSE-30 [17]): 42 nM
Activity (ECa-109 cell line [18]): Active
Activity (ECa-109 [19]): inactive
Activity (ECa-109 [20]): Active
IC50 (HCT-116): 62 nM
Activity (KYSE-30 [21]): inactive
Activity (ECa-109 cell line [22]): Tde
Activity (KYSE-30 [23]): Active
Activity (KYSE-30 [24]): Active
Activity (ECa-109 cell line [25]): Active
Activity (ECa-109 cell line [26]): Active
Activity (KYSE-30 [27]): Active
Activity (KYSE-30 [28]): Active
Activity (ECa-109 cell line [29]): Active
Activity (KYSE-30 [30]): inactive
inhibition (KYSE-30 [31]): Active
Activity (ECa-109 cell line [32]): Active
Activity (KYSE-30 [33]): inactive
Activity (Cell membrane [34]): Active
Activity (ECa-109 cell line [35]): 31.07%
